Measurements published in ChEMBL document CHEMBL5576087 (Bioorg Med Chem Lett, 2024).
pIC50: −log10 of the molar value. Activity calls are given as the source filed them. The calls are words filed in the database; no cut-off is given here.

Tests used:
HUVEC [1] = test: Inhibition of tube formation in HUVEC cells at 100 uM measured after 18 hrs relative to control; type: functional; conditions: Homo sapiens
MM1.S [2] = test: Effect on GSPT1 protein level in human MM1.S cells at 0.1 uM measured after 16 hrs by Western blot analysis; type: functional, cell-based
HuH-6 = test: Effect on SALL4 protein level in human HuH-6 cells at 0.1 uM measured after 16 hrs by Western blot analysis; type: functional, cell-based
MM1.S [3] = test: Effect on CK1a protein level in human MM1.S cells at 0.1 uM measured after 16 hrs by Western blot analysis; type: functional, cell-based
MM1.S [4] = test: Effect on IKZF3 protein level in human MM1.S cells at 0.1 uM measured after 16 hrs by Western blot analysis; type: functional, cell-based
HUVEC [5] = test: Antiproliferative activity against human HUVEC cells at 10 uM measured after 48 hrs by CCK-8 method relative to control; type: toxicity, cell-based
HUVEC [6] = test: Antiangiogenesis activity in HUVEC cells assessed as inhibition of tube formation measured after 18 hrs; type: functional, cell-based; conditions: Homo sapiens
Protein cereblon = Protein cereblon (Homo sapiens, UniProt Q96SW2); test: Binding affinity to human CRBN TBD (319 to 425 residues) assessed as inhibition constant by MST assay
HUVEC [7] = test: Antiangiogenesis activity in HUVEC cells assessed as inhibition of tube formation at 10 to 100 uM measured after 18 hrs; type: functional, cell-based; conditions: Homo sapiens, dose 10-100 µM
HUVEC [8] = test: Antiproliferative activity against human HUVEC cells at 100 uM measured after 48 hrs by CCK-8 method; type: toxicity, cell-based
MM1.S [9] = test: Antiproliferative activity against human MM1.S cells at 100 uM measured after 72 hrs by CCK-8 method; type: functional, cell-based
HUVEC [10] = test: Antiproliferative activity against human HUVEC cells at 10 uM measured after 48 hrs by CCK-8 method; type: toxicity, cell-based
MM1.S [11] = test: Antiproliferative activity against human MM1.S cells at 10 uM measured after 72 hrs by CCK-8 method; type: functional, cell-based
[12] = Metabolic stability in human liver microsomes assessed as half life measured upto 60 mins in presence of NADPH by LC/MS analysis; type: ADME, Microsome

| Structure (SMILES) | inhibition at 100 µM (HUVEC [1]) [%] | Activity (MM1.S [2]) | Activity (HuH-6) | Activity (MM1.S [3]) | Activity (MM1.S [4]) | Activity (HUVEC [5]) [%] | pIC50 (HUVEC [6]) | Ki (Protein cereblon) | Activity (HUVEC [7]) | Activity (HUVEC [8]) | Activity (MM1.S [9]) | Activity (HUVEC [10]) | Activity (MM1.S [11]) | half-life [12] [min] | inhibition (HUVEC [1]) |
| --- | --- | --- | --- | --- | --- | --- | --- | --- | --- | --- | --- | --- | --- | --- | --- |
| CCOCCNc1cccc2c1C(=O)N(C1CCC(=O)NC1=O)C2=O (centres undefined) | 50 | – | – | – | – | – | – | – | – | – | – | – | – | – | – |
| O=C1CCC(N2C(=O)c3c(F)c(F)c(F)c(F)c3C2=O)C(=O)N1 (centres undefined) | – | inactive | inactive | inactive | inactive | – | – | – | – | – | – | – | – | – | – |
| CC(C)N1C(=O)NC(=O)C(C)(N2C(=O)c3c(F)c(F)c(F)c(F)c3C2=O)C1=O (centres undefined) | – | inactive | inactive | inactive | inactive | > 95 | 5.55 | Not Active | – | – | – | – | – | – | – |
| O=C1CCC(N2C(=O)c3ccccc3C2=O)C(=O)N1 (centres undefined) [THALIDOMIDE] | – | inactive | inactive | inactive | inactive | – | – | – | inactive | Non-Toxic | inactive | – | – | – | – |
| O=C1CCC(NC(=O)c2ccccc2)C(=O)N1 (centres undefined) | – | inactive | inactive | inactive | inactive | – | – | – | inactive | – | – | Non-Toxic | inactive | – | – |
| CC(C)N1C(=O)NC(=O)C(C)(NC(=O)c2cc(F)c(F)c(F)c2F)C1=O (centres undefined) | – | inactive | inactive | inactive | inactive | – | – | Not Active | inactive | – | – | Non-Toxic | inactive | – | – |
| CC(C)N1C(=O)NC(=O)C(C)(N2C(=O)c3ccccc3C2=O)C1=O (centres undefined) | – | inactive | inactive | inactive | inactive | – | – | Not Active | inactive | – | – | Non-Toxic | inactive | 19.3 | – |
| O=C1CCC(NC(=O)c2cc(F)c(F)c(F)c2F)C(=O)N1 (centres undefined) | – | inactive | inactive | inactive | inactive | – | – | – | inactive | – | – | Non-Toxic | inactive | – | – |
| O=C1CCC(NC(=O)c2cc(F)c(F)cc2F)C(=O)N1 (centres undefined) | – | – | – | – | – | – | – | – | – | – | – | – | – | – | inactive |
| CC(C)N1C(=O)NC(=O)C(C)(NC(=O)c2ccccc2)C1=O (centres undefined) | – | inactive | inactive | inactive | inactive | – | – | Not Active | inactive | – | – | Non-Toxic | inactive | – | – |
